Consider nine compounds from patent US4020111A, “Propynyloxy alkyl arene insecticides” (priority 1975, dated 1977).

Broadly, the mortality is the share of the test organisms that died.

Data set [1] relates to polyvalent resistant (CH strain) houseflies. As to the kind of experiment: whole plant or invertebrate. It counts as in vivo, housefly (CH strain). The note with it: Musca domestica, topical, 24 h. As for the experimental part:
The effect of O-(2-propynyl) oximes with Dimetilan and with GS 13798 was obtained from tests on polyvalent resistant (CH strain) houseflies that had been chilled and to the dorsal region of which was applied an acetone solution of synergist and insecticide at a ratio of two to one. Duplicate tests were performed using 10 four to five-day old female houseflies per test. After dosage, the flies were put in a plastic petri dish with cotton soaked in a sugar-water solution. These doses of insecticide used without synergist caused 10-40% mortality.
(§1) In Table IX, and in the tables following it, the doses of topically applied insecticides and of synergists unless otherwise noted are expressed as micrograms per fly (μg/fly).
The effect of compounds II-C, II-D and II-E with Dimetilan and GS 13798 was determined, following the procedure of Example 5, from tests on polyvalent resistant (CH strain) houseflies. These doses of insecticide used without synergist caused 10-40% mortality.
(§2) The synergistic effect with GS 13005 of compounds I-A, I-B, I-D, I-E, I-F, I-G and I-I was determined from topical application tests to IN/WHO strain, Rutgers A strain and polyvalent CH strain houseflies using the procedures of Example 5. The percent kills of the IN/WHO strain flies after 24 hours are shown in Table XXVIII; of the Rutgers A strain, in Table XXIX; and of the polyvalent CH strain, in Table XXX. The doses of insecticide alone to the CH strain files caused 10-40% mortality.
(§3) The synergistic effect with Diazinon and GS 13005 of various of the benzyl 2-propynyl ethers identified in Tables II and IIa was determined by topical application tests on IN/WHO strain, and Rutgers A strain and polyvalent, resistant, CH strain houseflies using the procedures of Example 5. The percent kills after 24 hours of IN/WHO strain flies are shown in Table XXXI; of Rutgers A strain flies, in Table XXXII; and of CH strain flies, in Table XXXIII. The doses of insecticide alone to the CH strain flies caused 10-40% mortality.
The synergistic effect with pyrethrum of various synergist compounds was determined by topical application tests on polyvalent, resistant CH strain houseflies following the procedure of Example 5. Application of the insecticide alone caused 10-40% mortality.

Data set [2] deals with IN/WHO strain house flies. As to the kind of experiment: topical application test, percent kill after 24 hours, IN/WHO strain. Type of data set: in vivo, house fly (susceptible IN/WHO strain). As to the method:
as §1
The synergistic effect of O-(2-propynyl) oximes with mobam was determined from topical application tests on susceptible, female, IN/WHO strain house flies and from tests on resistant, female, Rutgers A strain house flies. The synergist and insecticide were dissolved in ACS Grade acetone in such quantities that a 1.0μ liter volume applied to the thorax of 3-to-5 day old CO2 -anesthetized female adult house flies contained the desired dosage. After being treated, the flies were confined, 10 to a plaster petri dish, with 3-5 dishes/treatment, and held for 24-hr. observation of mortality. Reconstituted skim milk on cotton dental wicks was provided during the holding period. The percent kills after 24 hours are shown in Table X for the IN/WHO strain and Table XI for the Rutgers A strain.
The synergistic effect of benzyl 2-propynyl ethers with mobam was determined from topical application tests on IN/WHO and Rutgers A strain houseflies, following the procedure of Example 5. The percent kills after 24 hours are shown in Table XIV for the IN/WHO strain and in Table XV for the Rutgers A strain.
The effects of varying the insecticide dose and the synergist-insecticide ratio are further illustrated, with synergist compounds II-D, II-E, II-F and Mobam insecticide, in Tables XVI, XVII and XVIII.
The synergistic effect on IN/WHO flies of synergist compound II-K with Dimetilan, pyrolan, Baygon and HRS 1422 is illustrated by the 24 hour percent mortality data in Tables XIX, XX and XXI.
The effect on IN/WHO flies of synergist compound IV-C, identified in Table IV, with mobam was determined by the topical application procedure of Example 5.
The synergistic effect with Diazinon of compounds I-B, I-D, I-F, I-G, I-H and I-I, identified in Tables I and Ia, was determined from topical application tests on IN/WHO strain houseflies and on Rutgers A strain houseflies by the procedure of Example 5. The percent kills after 24 hours are shown in Table XXV for the IN/WHO strain and Table XXVI for the Rutgers A strain.
as §2, §3
The synergist effect on IN/WHO flies of synergist compound II-K with Gardona and Bidrin is illustrated by the 24 hour percent mortality data in Tables XXXIV and XXXV.
The synergistic effect on IN/WHO strain flies and Rutgers A strain flies of compound IV-C with GS 13005 and with Diazinon was determined by the topical application procedure of Example 5. The percent kills of IN/WHO strain flies after 24 hours are shown in Tables XXXVI and XXXVII; the percent kills of Rutgers A strain flies are shown in Tables XXXVIII and XXXIX.

Data set [3] relates to Wilson strain house flies. Type of data set: in vivo, house fly (susceptible Wilson strain). The note with it: for Contact Synergistic Ratio, Carbaryl (LC50 insecticide alone / LC50 with synergist): in vivo; for Contact Synergistic Ratio, Pyrolan (LC50 insecticide alone / LC50 with synergist): synergist to insecticide 5:1 by weight, 24 h. As to the method:
The required solutions of the insecticide and of the synergist compound were prepared in acetone at a concentration of one milligram per milliliter. One-pint wide mouth glass jars were coated wiith the appropriate insecticide-synergist combination by rolling the jars containing aliquots of the appropriate solutions diluted to three milliliters with acetone to deposit, by evaporation, a film of the test materials. The flies were transferred under carbon dioxide anesthesia and held in the jar at room temperature. Perforated aluminum foil was used to cover the jars and to hold cotton saturated with 10% sugar solution. Counts were made at intervals, but the recorded mortality was based on 24-hour kill, rather than knockdown. All prostrate nonmoving flies were considered dead. A determination was then made of the contact synergistic ratio [SR], which is the ratio of the LC50 of insecticide alone to the LC50 of the insecticide when applied together with the synergist. The LC50 of the insecticide was estimated from a log-probit plot of percent kill versus dosage. […] The LC50 of the combination of insecticide and synergist was determined at a synergist to insecticide parts by weight ratio of five to one.

In data set [4] the test system is mice. Put plainly: extension of Secobarbital sleeping time by synergists. Type of data set: in vivo, Swiss albino white male mice. To be noted: Secobarbital 37 mg/K; for Relative Sleeping Time: treated/control. As to the method: (§4) The selectivity of the synergist compounds of this invention is illustrated by the results of sleeping-time extension tests and of acute toxicity tests on Swiss albino white male mice.
(§5) The effect of various synergist compounds on sleeping time of sodium secobarbital [Secobarbital] and of 3,3-diethyl-5-methyl-2,4-dioxypiperidine [Noludar] was determined by administering the drug, with and without synergist, to approximately 38-day old male mice weighing from 25 to 30 grams. Synergists were administered in each of two doses, 74.0 mg/kg (dilution being 2.0 mg/0.1 ml corn oil), and 110.0 mg/kg (dilution 3.0 mg/0.1 ml oil). Secobarbital was administered at a dose of 37.0 mg/kg (dilution 1.0 mg/0.1 ml water). Noludar was administered at a dose of 110.0 mg/kg (dilution 3.0 mg/0.1 ml water). The synergist was administered one hour prior to administration of the Secobarbital or Noludar. Secobarbital and Noludar sleeping times were obtained for both the control (drug only) and the treated (synergist plus drug) mice by noting the time lapse between the administration of the drug and the recovery of the righting reflex, i.e. when the animal regains conciousness and can walk up an inclined wooden tray with coordination. The relative sleeping time (R.S.) was noted. The R.S. is the extended sleeping time in the treated mice (synergist plus drug) divided by the sleeping time in the control mice (drug only). The mean sleeping time for the treated mice and the R.S. are shown on Table XXXXIV for various synergist compounds.

For data set [5], the system named is mice. As to the kind of experiment: extension of Noludar sleeping time by synergists. Type of data set: in vivo, Swiss albino white male mice. The note with it: Noludar 110 mg/K, synergist 110 mg/K; for Relative Sleeping Time: treated/control. As for the experimental part:
as §4, §5

Data set [6] deals with mice. As to the kind of experiment: synergism of acute toxicity of Dimetilan, GS 13005, Secobarbital and Methadone (intraperitoneal). The note with it: 48 hours, of eight mice. Type of data set: in vivo, Swiss albino white male mice. As to the method:
The synergism of the acute toxicity of Dimetilan by various synergists was determined by tests on Swiss albino, white male mice aged 5 to 6 weeks and weighing 23 to 27 grams. The synergists and insecticides were dissolved in corn oil and the drugs were dissolved in distilled water. All compounds were administered intraperitoneally by injection in the lower quadrent of the abdomen. The synergist was administered in 0.1 ml of corn oil 1 hour prior to administration of the insecticide. Eight mice were treated, per dosage, with each synergist. The mice were watched for a minimum of 6 hours while held in a glass jar with bedding individually after intraperitoneal injection of the test solutions. Lethality was noted, the animals were weighed and transferred in cages, and food and water were supplied. Control mice were given 0.1 ml of corn oil at the time of administration of the synergist to the test mice and 0.1 ml corn oil plus Dimetilan at the time of administration of the insecticide to the test mice.
By the same procedure, the synergism of acute toxicity of GS 13005, Secobarbital and 6-dimethylamino-4,4-diphenyl-3-heptanone [Methadone] was determined.

[7] abbreviates: Dimetilan 8 mg/kg + synergist 240 mg/kg ip.

The structures appear in SMILES notation.

For the compound `CCOP(=S)(OCC)Oc1cc(C)nc(C(C)C)n1` [Diazinon, O,O-diethyl O-(2-isopropyl-4-methyl-6-pyrimidyl) phosphorothioate, reference compound], the mortality at 5 µg/fly in data set [1] (read-out: mortality, insecticide alone) fell in the range of 10 to 40%. Also, the “percent kill after 24 hours” value in data set [2] (Diazinon alone 0.03 μg/fly, 1440 min) was determined as 5%.

For `CNC(=O)Oc1cccc2ccc(C)nc12` [GS 13798, 8-(2-methylquinolyl)-N-methylcarbamate, reference compound], in data set [1] (read-out: mortality, insecticide used without synergist), the mortality at 1 µg/fly is 10 to 40%.

As for `C#CCON=Cc1ccc(N(C)C)cc1` [I-C], in data set [3], the “Contact Synergistic Ratio, Carbaryl (LC50 insecticide alone / LC50 with synergist)” value stood at 200 and the “Contact Synergistic Ratio, Pyrolan (LC50 insecticide alone / LC50 with synergist)” value was found to be 20. Besides, in data set [4] (synergist 74 mg/K), the “Mean Sleeping Time” value stood at 30 min and the “Relative Sleeping Time” value was found to be 1.1. Further, in data set [4] (synergist 110 mg/K), the “Mean Sleeping Time” value is 108 min and the “Relative Sleeping Time” value came to 1.8. Further, in data set [5], the “Mean Sleeping Time” value was found to be 34 min and the “Relative Sleeping Time” value is on record as 1.0. Moreover, in data set [6] (setting [7]), the “number of mice dead” value was determined as 0.

For `C#CCOCc1cc(Cl)c(Cl)cc1Cl` [II-F], in data set [3], the “Contact Synergistic Ratio, Carbaryl (LC50 insecticide alone / LC50 with synergist)” value worked out at 150 and the “Contact Synergistic Ratio, Pyrolan (LC50 insecticide alone / LC50 with synergist)” value is given as 15. In addition, the “percent mortality 24 hours” value in data set [2] (Mobam 0.13 μg/fly, synergist/insecticide 5/1) turned out to be 23%. Further, in data set [4] (synergist 110 mg/K), the “Mean Sleeping Time” value amounted to 46 min and the “Relative Sleeping Time” value came out at 1.0. In data set [5], the “Mean Sleeping Time” value was 38 min and the “Relative Sleeping Time” value was found to be 1.3. Besides, in data set [6] (setting [7]), the “number of mice dead” value amounted to 0.

`C#CCn1ncc2cc([N+](=O)[O-])ccc21` [III-A]: in data set [3], the “Contact Synergistic Ratio, Carbaryl (LC50 insecticide alone / LC50 with synergist)” value is recorded as 143 and the “Contact Synergistic Ratio, Pyrolan (LC50 insecticide alone / LC50 with synergist)” value came out at 30. Besides, in data set [4] (synergist 110 mg/K), the “Mean Sleeping Time” value came to 50 min and the “Relative Sleeping Time” value is 1.1. Moreover, in data set [5], the “Mean Sleeping Time” value stood at 32 min and the “Relative Sleeping Time” value is on record as 1.0. Besides, the “number of mice dead” value in data set [6] (setting [7]) turned out to be 0.

With `C#CCn1nc(Cl)c2ccccc21` [III-B], in data set [3], the “Contact Synergistic Ratio, Carbaryl (LC50 insecticide alone / LC50 with synergist)” value is listed as 117 and the “Contact Synergistic Ratio, Pyrolan (LC50 insecticide alone / LC50 with synergist)” value was found to be 30. For the same compound, in data set [4] (synergist 110 mg/K), the “Mean Sleeping Time” value amounted to 6 min and the “Relative Sleeping Time” value was 1.3. Besides, in data set [5], the “Mean Sleeping Time” value amounted to 46 min and the “Relative Sleeping Time” value is listed as 1.0. Moreover, the “number of mice dead” value in data set [6] (setting [7]) is recorded as 0.

With `C#CCn1ncc2ccc(Cl)cc21` [III-D], in data set [3], the “Contact Synergistic Ratio, Carbaryl (LC50 insecticide alone / LC50 with synergist)” value is 250 and the “Contact Synergistic Ratio, Pyrolan (LC50 insecticide alone / LC50 with synergist)” value is 25. In data set [4] (synergist 110 mg/K), the “Mean Sleeping Time” value came to 55 min and the “Relative Sleeping Time” value came to 1.2. In addition, in data set [5], the “Mean Sleeping Time” value is 45 min and the “Relative Sleeping Time” value amounted to 1.5. The “number of mice dead” value in data set [6] (setting [7]) worked out at 1.

For `C#CCOC(c1ccc(Cl)cc1Cl)C(C)[N+](=O)[O-]` (stereo not drawn) [IV-A, 2-propynyl 1-(2,4-dichlorophenyl)-2-nitropropyl ether], the “Contact Synergistic Ratio, Carbaryl (LC50 insecticide alone / LC50 with synergist)” value in data set [3] came to 134. Further, the “Contact Synergistic Ratio, Pyrolan (LC50 insecticide alone / LC50 with synergist)” value in data set [3] came to 10. Further, the results for the “Mean Sleeping Time” value in data set [4] (synergist 74 mg/K) and in data set [5] were 56 min and 78 min, respectively. In addition, the entries for the “Relative Sleeping Time” value in data set [4] (synergist 74 mg/K) and in data set [5] were 2.3 and 2.7, respectively. For the same compound, the “number of mice dead” value in data set [6] (Dimetilan 8 mg/kg + synergist 80 mg/kg ip) is 4; in data set [6] (setting [7]) it was 7.

Regarding `Cc1cc(OC(=O)N(C)C)n(-c2ccccc2)n1` [Pyrolan, 3-methyl-1-phenyl-5-pyrazolyl-N-dimethylcarbamate, reference compound], in data set [3] (insecticide alone, 24-hour kill), the “LC50 of insecticide alone” value is reported as 0.15 mg/jar. Besides, the “24 hour percent mortality” value was 0% in data set [2] (Pyrolan alone 0.63 μg/fly), 3% in data set [2] (Pyrolan alone 1.3 μg/fly), 10% in data set [2] (Pyrolan alone 2.5 μg/fly) and 43% in data set [2] (Pyrolan alone 5.0 μg/fly).
